Common to all, as to experiment: relative viability (nuclei count vs DMSO), 5 days (fraction); higher = more cells survive
Compound in one test: COC1=CC=C(C=C1)COC2=C(C=C(C=C2)CC3=CN=C(N=C3N)N)OC [GW-2580]
In short, it runs like this:
(§1)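 Viability was read as treated-well nuclei divided by vehicle-well nuclei, using the median across plates. Lung cancer cell lines in 1536-well plates were kept overnight at 37 °C, pinned with five √10-spaced library-drug doses, and after 5 days were Hoechst-stained, imaged at 4× and counted in MetaXpress. Plates passed only with control CV below 25% and at least one doubling.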

Compound in another test: Cc1cnc(Nc2ccc(OCCN3CCCC3)cc2)nc1Nc1cccc(S(=O)(=O)NC(C)(C)C)c1 [Fedratinib]
A digest of the protocol: as §1

Compound in the test “Fedratinib + Navitoclax”: Cc1cnc(Nc2ccc(OCCN3CCCC3)cc2)nc1Nc1cccc(S(=O)(=O)NC(C)(C)C)c1 [Fedratinib] + CC1(C)CCC(c2ccc(Cl)cc2)=C(CN2CCN(c3ccc(C(=O)NS(=O)(=O)c4ccc(N[C@H](CCN5CCOCC5)CSc5ccccc5)c(S(=O)(=O)C(F)(F)F)c4)cc3)CC2)C1 [Navitoclax] (partner 0.5 µM)
A digest of the protocol: (§2)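 Values are medians from duplicate plates. Each reflects relative viability, defined as the nuclei count of treated wells over that of vehicle wells. Lung cancer cell lines in 1536-well plates were pin-tool dosed one day after seeding with one drug alone or with a fixed anchor-drug dose plus five library-drug doses (not always all listed) in √10 steps, then fixed, stained and imaged at 4× after 5 days.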

Compound in the test “GW-2580 + Palbociclib”: COC1=CC=C(C=C1)COC2=C(C=C(C=C2)CC3=CN=C(N=C3N)N)OC [GW-2580] + CC(=O)c1c(C)c2cnc(Nc3ccc(N4CCNCC4)cn3)nc2n(C2CCCC2)c1=O [Palbociclib] (partner 0.5 µM)
A digest of the protocol: as §2

Compound in the test “GW-2580 + Tozasertib”: COC1=CC=C(C=C1)COC2=C(C=C(C=C2)CC3=CN=C(N=C3N)N)OC [GW-2580] + Cc1cc(Nc2cc(N3CCN(C)CC3)nc(Sc3ccc(NC(=O)C4CC4)cc3)n2)n[nH]1 [Tozasertib] (partner 0.1 µM)
In short, it runs like this: as §2

Compound in the test “Fedratinib + OSI-027”: Cc1cnc(Nc2ccc(OCCN3CCCC3)cc2)nc1Nc1cccc(S(=O)(=O)NC(C)(C)C)c1 [Fedratinib] + COc1cccc2cc(-c3nc([C@H]4CC[C@H](C(=O)O)CC4)n4ncnc(N)c34)[nH]c12 [OSI-027] (partner 0.5 µM)
In short, it runs like this:
as §2

With UMC-11, the relative viability worked out at 1.05 in the test with GW-2580 (0.08 µM); 1.11 with GW-2580 (0.8 µM); 0.923 with GW-2580 (2.53 µM); 1.2 with GW-2580 (8 µM); 0.914 in the test with Fedratinib (0.1 µM); 0.894 with Fedratinib (0.3162 µM). In addition, the relative viability with Fedratinib (1 µM) was found to be 0.67; with Fedratinib + Navitoclax (first compound 0.1 µM) it was 0.31; with Fedratinib + Navitoclax (first compound 0.3162 µM) it was 0.275; in the test with Fedratinib + Navitoclax (first compound 1 µM) it was 0.228; in the test with GW-2580 + Palbociclib (first compound 0.08 µM), 0.329; in the test with GW-2580 + Palbociclib (first compound 0.8 µM) it was 0.352. Also, the relative viability amounted to 0.348 with GW-2580 + Palbociclib (first compound 8 µM); 0.206 with GW-2580 + Tozasertib (first compound 0.08 µM); 0.284 with GW-2580 + Tozasertib (first compound 0.8 µM); 0.198 in the test with GW-2580 + Tozasertib (first compound 2.53 µM); 0.197 with GW-2580 + Tozasertib (first compound 8 µM); 0.473 with Fedratinib + OSI-027 (first compound 0.1 µM). Moreover, the relative viability with Fedratinib + OSI-027 (first compound 0.3162 µM) is 0.452; with Fedratinib + OSI-027 (first compound 1 µM), 0.373.

Source of the values: the supplement of paper PMC10307832.
